Here are results for one compound from patent US9849127B2, “Means and methods for treating cancer” (Medizinische Hochschule Hannover, priority 2013, dated 2017).

Series [1] in a line: Toxicity testing in animals. It counts as in vivo. Particulars: mice, 1 mg intraperitoneally daily for two weeks. The procedure:
The compound described herein has been given to mice at a dose of 1 mg intraperitoneally daily for two weeks.

A further series concerns IDH1 mutant enzyme. Briefly: Intracellular 2HG levels in IDH1mutant cells (neomorphic activity). It counts as cell-based. As to conditions: 72 hours, 10 μM, versus control treated cells. The text has this: FIG. 2: D-2HG levels from IDH1mut cells treated with compound HMS-101 (drug) or solvent control.
Series [2] has as its system R-2-hydroxyglutarate (R-2HG). Briefly: Ratio R-2HG/S-2HG in serum of treated mice. The class given is in vivo. As to conditions: treated mice versus PBS, 9 weeks after treatment, pooled serum. The source says:
FIG. 6: Ratio of R-2-hydroxyglutarate (R-2HG) to S-2-hydroxyglutarate (S-2HG) in serum from mice treated with HMS-101 or solvent control (PBS) at 9 weeks after treatment. Serum from 3 mice were pooled per indicated measurement (9 mice for PBS, 12 mice for HMS-101).
2-hydroxyglutarate (R-2HG), in particular elevated values thereof, typically measured in terms of the ratio between R- and S-form (R-2HG/S-2HG) is a marker for leukemia in accordance with the present invention. […] This establishes both the usefulness of the mentioned ratio as a marker for leukemia and the beneficial effects of HMS-101.

Series [3] deals with HoxA9 immortalized bone marrow cells expressing IDH1R132C. Briefly: Survival of mice transplanted with HoxA9 immortalized IDH1R132C bone marrow cells. It counts as in vivo. Particulars: 1 mg/mouse 5 days/week starting 5 days after transplantation, versus PBS; follow-up ongoing. The method, then: FIG. 5: Survival of mice treated with HMS-101.
HoxA9 immortalized bone marrow cells from C57BL/6J mice were transduced with retroviral vectors expressing IDH1R132C and GFP. One million GFP-expressing sorted cells were injected intravenously in lethally-irradiated syngeneic recipient mice, accompanied by a life-sparing dose of 1×10^5 freshly isolated bone marrow cells from syngeneic mice. One cohort of mice was treated with HMS-101 at a dose of 1 mg/mouse for 5 days/week starting 5 days after transplantation. The control cohort was treated with PBS for 5 days/week starting 5 days after transplantation. The solid line represents the survival of PBS-treated mice, the dotted line represents the survival of HMS-101-treated mice. Follow-up and treatment are ongoing.

The next series has as its system IDH1wt cells. Briefly: Alamar blue cell viability assay, IDH1wt cells. It counts as cell-based. Particulars: IDH1wt cells in vitro, treated for 72 hours. The method, then:
(§1) FIG. 1: IC50 values for IDH1wt and IDH1mut treated with compound HMS-101 for 72 hours.
Background: Resazurin is reduced to fluorescent resorufin, in cell work by metabolically active cells.

The test system of another series is IDH1mut cancer cells. Briefly: Alamar blue cell viability assay, IDH1mut cells. The class given is cell-based. The method, then: as §1
The subject of series [4] is primary human AML cells harboring the IDH1 mutation. Briefly: Colony forming assay of primary human AML cells. It counts as cell-based. Particulars: IDH1-mutated primary human AML cells compared to AML cells with wildtype IDH1 and CD34+ cells from healthy donors. The source says: FIG. 3: Colony forming assay of primary human AML cells with and without IDH1 mutation treated with solvent control (DMSO) or compound HMS-101. Human CD34^+ hematopoietic stem and progenitor cells from healthy donors were used as controls.

Series [5] shares this test system. Briefly: Rate of apoptosis of primary human AML cells. Particulars: IDH1-mutated primary human AML cells compared to AML cells with wildtype IDH1 and CD34+ cells from healthy donors. The class given is cell-based. The text has this:
FIG. 4: Rate of apoptosis of primary human AML cells with and without IDH1 mutation treated with solvent control (DMSO) or compound HMS-101. Human CD34^+ hematopoietic stem and progenitor cells from healthy donors were used as controls.

The IC50 is the concentration at which inhibition is half-maximal. Higher therefore signals weaker potency. `CN1CCN(C)[C@H](CCN2CC[C@H](c3ccc(F)cc3)C2)C1` [HMS-101]: the “tolerability / visible signs of toxicity” value in series [1] was “well tolerated by the animals with no visible signs of toxicity”. The “intracellular 2HG levels (D-2HG)” value in the series on IDH1 mutant enzyme was “dramatically reduced”. In series [2], the “ratio R-2HG/S-2HG in serum” value was “decrease of the ratio R-2HG/S-2HG”. In addition, the survival result in series [3] is on record as “survival benefit”. The 50% inhibitory concentration (IC50) worked out at 12 µM in the series on IDH1wt cells and 1 µM with IDH1mut cancer cells (IDH1mut cancer cells in vitro, treated for 72 hours). Further, in the series with IDH1mut cancer cells (72 hours), the “IC50 on IDH1wt cells relative to IDH1mut cells” value is 12 times. Besides, the colony forming potential entry in series [4] is “reduced the colony forming potential”. The rate of apoptosis result in series [5] is listed as “increased the rate of apoptosis”.
